Measurements as given in patent publication US12084460B2, “Crystalline forms of a TLR7/TLR8 inhibitor” (NOVARTIS AG, priority 2018, dated 2024).
Converted amounts (≈) assume the structure as drawn. Where a name gives a salt, the structure may show the parent alone. One block for each molecule: values may come before it.

Tests used:
Assay type in all cases: physicochemical
Solubility = experiment: Solubility
Procedure: Form A is highly soluble at pH values of 4.7 and below (solubility higher than 2 mg/mL), however, at higher pH levels, formation of less soluble form HA leads to lower solubility values.

[1] = Hygroscopicity / behaviour under humidity (DVS); settings: for behaviour at high humidity: above 70% RH
Text: Crystalline form A is an anhydrous form of (S)—N-(4-((5-(1,6-dimethyl-1H-pyrazolo[3,4-b]pyridin-4-yl)-3-methyl-4,5,6,7-tetrahydro-1H-pyrazolo[4,3-c]pyridin-1-yl)methyl)bicyclo[2.2.2]octan-1-yl)morpholine-3-carboxamide that is highly crystalline consisting of thin tabular particles.
Crystalline form HA is a hydrated form of (S)—N-(4-((5-(1,6-dimethyl-1H-pyrazolo[3,4-b]pyridin-4-yl)-3-methyl-4,5,6,7-tetrahydro-1H-pyrazolo[4,3-c]pyridin-1-yl)methyl)bicyclo[2.2.2]octan-1-yl)morpholine-3-carboxamide.

[2] = Granulation simulation / dry grinding experiment; settings: for form change under dry grinding: XRPD and/or DSC
Procedure: Behavior under granulation simulation experiment: The physical stability of crystalline forms A and HA were also evaluated in granulation simulation experiments. In these experiments granulating solvent was added dropwise to the crystalline form A or HA until the solid is wetted sufficiently. The mixture was then vortexed between each addition at 25° C. Alternatively, dry grinding was carried out. The crystallinity of the material (post-grinding) was re-evaluated by XRPD and/or DSC.

[3] = Corrosivity assessment of salt form
Text: The criteria for selection are toxicological considerations, crystallinity, melting point, hygroscopicity, stability in bulk, compatibility with excipients, pH of aqueous solution, solubility in water and aqueous media, morphology, handling and polymorphic behavior.

[4] = Stability under light exposure; settings: exposure to 1200 kLux at 25° C.
[5] = Competitive solvent equilibration of form A and form HA; settings: 1:1 mixture of form A and form HA suspended in solvents, 25-50° C., seven days, XRPD/DVS
Procedure: Competitive equilibrations were carried out to investigate the relative stability of form A and HA in a competitive solvent equilibration. A 1:1 mixture of form A and form HA was prepared and suspended in various solvents or mixture thereof at temperature between 25° C. and 50° C. for seven days. The resulting suspension was filtered and analyzed by XRPD/DVS.

[6] = Behavior under compression (physical stability); settings: 100 mg compressed 5 minutes at 10 tons
Procedure: Behavior under compression: The physical stability of each crystalline form (Form A or Form HA) was also evaluated.
100 mg of the crystalline form was compressed for 5 minutes at 10 tons with a hydraulic press (diameter of the tablets 8 mm). The sample was then characterized by XRPD to detect any change in the solid state.

[7] = Solid state stability in bulk and with excipient mixtures; settings: bulk: 1 week 80° C., 50° C., 80° C.-75% RH, 50° C.-75% RH; excipient mixtures EM1, EM2, HGC, HMPC: 2 weeks 50° C. with or without 75% RH; HPLC and XRPD
Procedure: A stability and excipient compatibility study was performed on form A and form HA. Both forms were subject to various test conditions as described below: • Test conditions in bulk: 1 week in a tight container at 80° C., 50° C., 80° C.-75% RH or 50° C.-75% RH. • Test condition with excipient mixtures (EM) • a. 1% of form A or form HA in EM1 for 2 weeks at 50° C. • b. 1% of form A or form HA in EM2 for 2 weeks at 50° C. • c. 10% of form A or form HA in crushed hard gelatin capsule (HGC) for 2 weeks at 50° C. • d. 10% of form A or form HA in crushed Hydroxypropyl Methyl Cellulose (HMPC) for 2 weeks at 50° C. • e. 1% of form A or form HA in EM1 for 2 weeks at 50° C. and 75% RH • f. 1% of form A or form HA in EM2 for 2 weeks at 50° C. and 75% RH • g. 10% of form A or form HA in crushed HGC for 2 weeks at 50° C. and 75% RH • h. 10% of form A or form HA in crushed HMPC for 2 weeks at 50° C. and 75% RH • EM1: Excipient mixture 1: Lactose spray dried (53%), Microcrystalline Cellulose (MCC) PH102 (40%), Crospovidone XL (5%), Aerosil (0.5%), Magnesium stearate (1.5%) • EM2: Excipient mixture 2: Mannitol DC (68%), MCC PH102 (26%), Ac-Di-Sol (4%), Aerosil (0.5%), Magnesium stearate (1.5%)
The degradation products were analyzed by HPLC and the sample was analyzed by XPRD to detect any changes to the solid state.

solubility (Solubility; aqueous buffers in bio-relevant media, aqueous buffer): ~4 µg/mL (≈ 7.51 µM)
hygroscopicity ([1]; humidities above 30% RH): slightly hygroscopic
form change under dry grinding [2]: no form change
form change upon granulation ([2]; ethanol and water as granulation solvent, 25° C., XRPD): no form change
Structure (SMILES): Cc1cc(N2CCc3c(c(C)nn3CC34CCC(NC(=O)[C@@H]5COCCN5)(CC3)CC4)C2)c2cnn(C)c2n1 [Form HA, (S)—N-(4-((5-(1,6-dimethyl-1H-pyrazolo[3,4-b]pyridin-4-yl)-3-methyl-4,5,6,7-tetrahydro-1H-pyrazolo[4,3-c]pyridin-1-yl)methyl)bicyclo[2.2.2]octan-1-yl)morpholine-3-carboxamide]
behaviour at low humidity ([1]; below 20% RH, rehydrates to form HA at 30% RH): dehydrates to a non-characterized anhydrate form

behaviour at high humidity [1]: deliquescent
Structure (SMILES): Cc1cc(N2CCc3c(c(C)nn3CC34CCC(NC(=O)[C@@H]5COCCN5)(CC3)CC4)C2)c2cnn(C)c2n1 [HCl salt, (S)—N-(4-((5-(1,6-dimethyl-1H-pyrazolo[3,4-b]pyridin-4-yl)-3-methyl-4,5,6,7-tetrahydro-1H-pyrazolo[4,3-c]pyridin-1-yl)methyl)bicyclo[2.2.2]octan-1-yl)morpholine-3-carboxamide]
corrosivity [3]: potential corrosivity

solubility (Solubility; pH 4.7, aqueous buffer, pH values of 4.7 and below): > 2000 µg/mL
physical and chemical stability under light exposure [4]: good physical and chemical stability
hygroscopicity ([1]; up to 70% RH): slightly hygroscopic
moisture uptake ([1]; up to 70% RH): 1.3%
water activity (aw) at which form A transforms into form HA [5]: ~0.25
change of crystalline form under compression (XRPD) [6]: No change of crystalline form
stability in bulk state and with excipients [7]: good stability
form change under dry grinding ([2]; listed as Modification A): stable
form change upon granulation ([2]; granulation with water): partially changed
Structure (SMILES): Cc1cc(N2CCc3c(c(C)nn3CC34CCC(NC(=O)[C@@H]5COCCN5)(CC3)CC4)C2)c2cnn(C)c2n1 [Form A, (S)—N-(4-((5-(1,6-dimethyl-1H-pyrazolo[3,4-b]pyridin-4-yl)-3-methyl-4,5,6,7-tetrahydro-1H-pyrazolo[4,3-c]pyridin-1-yl)methyl)bicyclo[2.2.2]octan-1-yl)morpholine-3-carboxamide]
behaviour at high humidity ([1]; listed as form A): transforms into the hydrate crystalline form HA
